Tests used:
TNF-α mRNA [1] = experiment: TNF-α mRNA expression in mouse macrophage cell line RAW 264.7 (real-time RT-PCR); assay type: cell-based
Experimental: (§1) The mouse macrophage cell line, RAW 264.7 (American Tissue Type Culture Collection (ATCC); Manassas, Va.), was cultured in Dulbucco's modified Eagle's medium (DMEM; ATCC) supplemented with 10% heat inactivated fetal calf serum […] (Invitrogen; Carlsbad, Calif.), 100 μg/ml streptomycin and 100 U/ml penicillin (Invitrogen), and 2 mM L-glutamine (Invitrogen). The human T cell line, Jurkat clone E6-1 (ATCC) was cultured in RPMI-1640 medium (Invitrogen) supplemented as described above. The human monocyte cell line, THP-1 (ATCC) was cultured much like the Jurkat cultures plus the addition of 1 mM sodium pyruvate (Gibco-Invitrogen). THP-1 cells were stimulated with 200 nM of phorbol 12-myristate 13-acetate (PMA; Sigma-Aldrich, St. Louis, Mo.) for 48 hours to differentiate the cells into macrophage-like cells. Cells were then washed three times every 24 hours with fresh medium.
(§2) Dose response experiments were performed following exposure of the RAW 264.7, Jurkat, and THP-1 cells to varying doses of creatinine HCl ([…]; Sigma-Aldrich). Control cultures contained no creatinine HCl, only growth medium. A dose of 10 mM creatinine HCl was chosen for use in these studies. The 10 mM concentration is physiologically relevant to individuals supplementing with 5 grams of creatine for their regimen and then converted into creatinine.
(§3) RAW, Jurkat, and THP-1 cells were treated in 6-well plates at 80-90% confluent (4.14×10^6 cells/ml, 2.6×10^7 cells/ml, and 5.26×10^5 cells/ml, respectively). All cells were lysed in 1 ml of Trizol (Invitrogen). After homogenization, chloroform was added to samples and nucleic acids extracted per the manufacturer's instructions. Nucleic acids were precipitated with isopropyl alcohol (Fisher, Pittsburgh, Pa.). Following centrifugation, the resulting pellets were washed with 75% ethanol and air dried. RNA was re-suspended in 50 μl of UltraPure distilled water (Invitrogen). Residual DNA was removed from the samples by treatment with RQ1 DNase (Promega, Madison, Wis.) at 37° C. for 1 hour per the manufacturer's protocol. Samples were extracted with phenol:chloroform:[…] alcohol (25:24:1) (Invitrogen) and the RNA was precipitated with 1/10 volume of 3M sodium acetate (pH=5.2) and 3 volumes of 100% ethanol. Samples were frozen at […] for a minimum of 2 hours. After centrifugation, the samples were washed with 75% ethanol, air dried, and resuspended in 20 μl of UltraPure distilled water (Invitrogen) and stored at −80° C. until time of use, RNA was quantified using a NanoDrop-1000 Spectrophotometer with the program ND-1000 V3.8.1 (Thermo Fisher Scientific, Wilmington, Del.).
(§4) Reverse transcription (Improm-II Reverse Transcription System, Promega) followed by real-time PCR analysis was performed in 20 μL volumes containing 1 μl of cDNA corresponding to 40 ng of DNase-treated RNA in the RT reaction, gene specific internal primers (0.5 μM of each primer), and 1× SsoFast EvaGreen Supermix (Bio-Rad, Hercules, Calif.). The primers were synthesized by Integrated DNA Technologies (IDT, Coralville, Iowa) and have 100% sequence homology to the […] or human genome. The primer sequences are listed below in Table 1.
(§5) The PCR was performed using the following conditions: 95° C. for 30 sec, 40 cycles of 95° C. for 5 sec, and 57° C. for 5 sec using a CFX96 Real-Time Detection System (Bio-Rad), GAPDH was used as a housekeeping gene to normalize mRNA levels between samples. Data was analyzed using the Bio-Rad CFX Manager V1.6.541.1028 software (Bio-Rad). The calibrator in the experiments was the sample obtained from control-treated cells. Copy numbers of targeted mRNAs were expressed as ratios of GAPDH mRNA levels. Relative quantitation was determined by the comparative CT method (ΔΔCT method) in which the formula is expressed as: 2^−ΔΔCT(1).
(§6) RT-PCR data was analyzed by two-way analysis of variance (ANOVA) with a Bonferroni's post-test. P values≤0.05 were considered statistically significant. […]

TNF-α mRNA [2] = experiment: TNF-α mRNA expression in human macrophage cell line THP-1 (real-time RT-PCR); assay type: cell-based
Experimental: as §1, §2
RAW, Jurkat, and THP-1 cells were treated in 6-well plates at 80-90% confluent (4.14×10^6 cells/ml, 2.6×10^7 cells/ml, and 5.26×10^5 cells/ml, respectively). All cells were lysed in 1 ml of Trizol (Invitrogen). After homogenization, chloroform was added to samples and nucleic acids extracted per the manufacturer's instructions. Nucleic acids were precipitated with isopropyl alcohol (Fisher, Pittsburgh, Pa.). Following centrifugation, the resulting pellets were washed with 75% ethanol and air dried. […] After centrifugation, the samples were washed with 75% ethanol, air dried, and resuspended in 20 μl of UltraPure distilled water (Invitrogen) and stored at −80° C. until time of use, RNA was quantified using a NanoDrop-1000 Spectrophotometer with the program ND-1000 V3.8.1 (Thermo Fisher Scientific, Wilmington, Del.). […]
as §5, with “The calibrator in the experiments was the sample obtained from control-treated cells.” left out
RT-PCR data was analyzed by two-way analysis of variance (ANOVA) with a Bonferroni's post-test. […]

TNF-α mRNA [3] = experiment: TNF-α mRNA expression in human T cell line Jurkat clone E6-1 (real-time RT-PCR); assay type: cell-based
Experimental: as §1, §2, §3, §4, §5, §6

[4] = system: drug resistant Staphylococcus aureus (“MRSA”); conditions: addition to a growth medium; cited from earlier work
TNF-α protein = experiment: Immunohistochemical staining of TNF-α protein expression in mouse macrophage cells (RAW 264.7); assay type: cell-based; conditions: 10 mM
Experimental: as §1
RAW cells were incubated with or without 10 mM creatinine (Sigma-Aldrich) for 24 or 48 hours. Staining was performed on cytospins which were fixed in cold acetone, air-dried, and rehydrated in phosphate buffered saline (PBS). Blocking was performed at room temperature for 20 minutes, followed by incubation with purified rat anti-mouse TNF-α antibody (BD Biosciences, San Diego, Calif.) overnight. […]

TLR-2 = conditions: mouse macrophages; cited from earlier work
[5] = system: vancomycin resistant Enterococcus faecium (“VRE”); conditions: addition to a growth medium; cited from earlier work
TLR-4 = conditions: mouse macrophages; cited from earlier work
TLR-7 = conditions: mouse macrophages; cited from earlier work
mouse macrophages = conditions: cited from earlier work
TLR-3 = conditions: mouse macrophages; cited from earlier work
[6] = system: Gram negative and Gram positive bacteria; conditions: addition to a growth medium; cited from earlier work
fungi = conditions: cited from earlier work
[7] = rats, acute or chronic inflammation induced by inflammatory agents, different doses; cited from earlier work

CN1CC(=O)N=C1N.Cl [creatinine HCl, creatinine hydrochloride]
TNF-α mRNA as compared to the control (100%) (TNF-α mRNA [1]; 10 mM, 10 minutes post-exposure, RAW 264.7): 28%
TNF-α mRNA as compared to the control (100%) (TNF-α mRNA [1]; 10 mM, 20 minutes post-exposure, RAW 264.7): 13%
TNF-α mRNA levels (TNF-α mRNA [1]; 10 mM, 40 minutes post-exposure, RAW 264.7): began to increase
TNF-α mRNA as compared to the control (100%) (TNF-α mRNA [1]; 10 mM, 60 minutes post-exposure, RAW 264.7): 47%
decrease of TNF-α mRNA expression in mouse macrophages (TNF-α mRNA [1]; about 10 mM, about 10 minutes post-treatment): ≥ 72%
reduction of TNF-α mRNA expression in mouse macrophages (TNF-α mRNA [1]; about 10 mM, about 20 minutes post-treatment): ≤ 87%
TNF-α mRNA levels, of the control levels (TNF-α mRNA [2]; 10 mM, 10 minutes post-exposure, THP-1): 41%
TNF-α mRNA levels (TNF-α mRNA [2]; 10 mM, 20 minutes post-exposure, THP-1): remained below those of control-treated cells
TNF-α mRNA levels, of the control levels (TNF-α mRNA [2]; 10 mM, 60 minutes post-exposure, THP-1): 50%
TNF-α mRNA levels, of the control level (TNF-α mRNA [3]; 10 mM, 20 minutes post-exposure, Jurkat): 25%
TNF-α mRNA levels (TNF-α mRNA [3]; 10 mM, 30 minutes post-exposure, Jurkat): began increasing
TNF-α mRNA levels (TNF-α mRNA [3]; 10 mM, 60 minutes post-exposure, Jurkat): control levels
TNF-α mRNA levels compared to the levels of control (TNF-α mRNA [3]; 10 mM, within 10 minutes of exposure, Jurkat): 50%
reduction of mRNA levels in human T cells (TNF-α mRNA [3]; about 10 mM, 20 minutes post-treatment): ≤ 75%
bacteria in growth medium [4]: decreased
TNF-α protein signal (immunohistochemical staining) compared to control-treated cells (TNF-α protein; 24 hours incubation): lower signals
TNF-α protein signal (immunohistochemical staining) compared to control-treated cells (TNF-α protein; 48 hours incubation): lower signals
TLR-2 transcript levels (TLR-2): reduced
bacteria in growth medium [5]: decreased
TLR-4 transcript levels (TLR-4): reduced
TLR-7 transcript levels (TLR-7): reduced
cell death (mouse macrophages): No alterations
TLR-3 transcript levels (TLR-3): reduced
bacteria in growth medium [6]: decreased
growth of fungi (fungi): does not affect

CN1CC(=O)N=C1N [creatinine]
Edema [7]: decreased

lipopolysaccharide [reference compound]
TNF-α mRNA expression (TNF-α mRNA [1]; positive control, RAW 264.7, not shown in graphs): significant increase
TNF-α mRNA expression (TNF-α mRNA [2]; positive control, THP-1, not shown in graphs): significant increase
TNF-α mRNA expression (TNF-α mRNA [3]; positive control, Jurkat, not shown in graphs): significant increase
